According to article PMC4104029, “Mechanism of Action of Compound-13: An α1-Selective Small Molecule Activator of AMPK” (Chemistry & Biology, 2014):

What was measured:
[1] = system: AMPK signaling in mouse primary hepatocytes; assay: AMPK signaling in primary hepatocytes, western blotting; type: cell-based; conditions: 30 μM STO-609 for 30 min, 1 μM ionomycin
Experimental: (§1) Figure 4 The C2 Prodrug, C13, Potently Activates AMPK in Mouse Primary Hepatocytes (A) Isolated mouse hepatocytes were incubated with vehicle or the indicated concentrations of C13 for 1 hr. AICAR (0.5 mM) was included as a positive control. Cell lysates were analyzed using western blotting with the indicated antibodies. (B) AMPKα1 or AMPKα2 complexes were immunoprecipitated from hepatocyte extracts prepared as described in (A) and assayed for kinase activity using 0.2 mM AMARA and 0.1 mM ATP. Results are expressed as the mean Pi incorporated in picomoles per minute-milligram ± SD. (C) Hepatocytes were stimulated with 30 μM C13 for the indicated times prior to harvesting, with AICAR (0.5 mM, 1 hr) as positive control. Lysates were analyzed using western blotting with the indicated antibodies. (D) Mouse hepatocytes were treated with the indicated compounds for 1 hr, and adenine nucleotide ratios were determined using capillary electrophoresis of perchloric acid extracts. (E) Mouse hepatocytes were preincubated with 30 μM STO-609 for 30 min prior to stimulation with 30 μM C13 for 1 hr or with 1 μM ionomycin for 30 min. Lysates were analyzed using western blotting with the indicated antibodies. (F) Wild-type (LKB1^+/+) or LKB1-null (LKB1^−/−) mouse embryonic fibroblasts were incubated with the indicated concentrations of C13 for 1 hr. AICAR (2 mM) was included as a positive control. Lysates were analyzed using western blotting with the indicated antibodies. Results are representative of three independent experiments. […]
Isolation of primary hepatocytes. Hepatocytes were isolated from fasted mice by collagenase digestion (Berry and Friend, 1969). Cells were seeded in M199 containing 100 U/ml penicillin G, 100 µg/ml streptomycin, 0.1 % (w/v) BSA, 10 % (v/v) FBS, 10 nM insulin, 200 nM triiodothyronine and 100 nM dexamethasone. Post attachment (3-4 h), cells were cultured overnight in M199 supplemented with antibiotics and 100 nM dexamethasone and used for experiments the following morning.
Western blotting. Cells were stimulated as indicated, rinsed with ice-cold PBS and lysed with 50 mM tris pH 7.5, 1 mM EDTA, 1 mM EGTA, 0.27 M sucrose, 1 % (w/v) Triton X-100, 20 mM glycerol-2-phosphate, 50 mM NaF, 5 mM Na4P2O7, 1 mM Na3VO4, 1 mM DTT, 0.5 mM PMSF, 1 mM benzamidine and 1 µM microcystin-LR. Lysates were clarified at 3000 g for 5 min at 4 °C and normalised using Bradford reagent and BSA as standard. Lysates (20 µg) were denatured in Laemlli buffer, separated on 7.5 % tris-glycine gels and transferred to PVDF in Towbin buffer. Membranes were blocked in 5 % (w/v) milk for 1 h at RT and incubated overnight in the indicated primary antibodies at 4 °C. Membranes were developed using HRP-conjugated antibodies and ECL reagent.
Nucleotide measurements. Cultured hepatocytes were incubated with the indicated compounds and washed with ice-cold 0.9 % (w/v) saline before extraction in 5 % perchloric acid. Precipitated material was removed by centrifugation (13,000 RPM, 3 min) and supernatant neutralised with 1:1 trioctylamine:Freon-113 (Khym, 1975). Nucleotides were separated and quantified by capillary electrophoresis using a Beckman P/ACE instrument as previously described (Hawley, et al., 2010).

[2] = target: T1, AMPK α1β1γ1 (Homo sapiens, UniProt P54619+Q13131); assay: AMPK phosphotransferase assay, allosteric activation, cell-free; type: biochemical; conditions: 1 μM C2, ADP 0–200 μM
T1 construct: purchased Sigma and Signalchem; host or cells: Spodoptera frugiperda (Sf9)
Experimental: Figure 1 The AMP Analog C2 Is a Potent AMPK Activator in Cell-Free Assays with Selectivity for α1 Complexes (A) The structure of the endogenous activator of AMPK, AMP; the AMP mimetic, C2; and the classical AMP mimetic, ZMP, and other AMPK activators are shown. […] (B) Recombinant AMPK complexes (α1β1γ1, α2β1γ1, α1β1γ2, and α1β2γ1) expressed in Spodoptera frugiperda were assayed for allosteric activation by AMP or C2. Results are expressed as the increase in activity relative to controls without ligand and represent the mean ± SD for three independent experiments. (C) Enzymes allosterically regulated by AMP (PFK1 and FBP1) or using AMP as a substrate (AMPD1, AK, and 5′-NT) were assayed in the presence of C2 (≤ 100 μM). Enzymes allosterically regulated by AMP were screened for both agonism and antagonism, the latter in the presence of AMP at ≈ EC50. All enzymes were unaffected by [C2] ≤ 100 μM. Representative data are shown for the effects of AMP and C2 on PFK1 and FBP1 activity. Results are representative of three independent experiments conducted on one enzyme preparation. TEXT PRINTED IN THE PICTURE: (B) C2: α1β1γ1: EC50: 0.011 ± 0.001 μM; α2β1γ1: EC50: 0.015 ± 0.003 μM; α1β1γ2: EC50: 0.024 ± 0.004 μM; α1β2γ1: EC50: 0.015 ± 0.002 μM | (B) AMP: α1β1γ1: EC50: 3.7 ± 0.6 μM; α2β1γ1: EC50: 3.2 ± 0.2 μM; α1β1γ2: EC50: 2.5 ± 0.3 μM; α1β2γ1: EC50: 3.2 ± 0.4 μM | (C) C2: PFK1: EC50: ND; FBP1: IC50: ND | (C) AMP: PFK1: EC50: 33 ± 3 μM; FBP1: IC50: 5 ± 0.2 μM […]
We initially compared the ability of C2 and AMP to activate various recombinant human AMPK complexes, expressed in insect cells, in cell-free assays (Figure 1B). As reported previously using rat liver complexes separated by immunoprecipitation ([Salt et al., 1998]), the allosteric activation of α1 complexes by AMP was less than that of α2 complexes. […] Similar results were obtained with other permutations of β and γ subunits in complex with α2 (data not shown). We also tested the effects of C2 and AMP on recombinant human α1β1γ1 and α2β1γ1 complexes expressed in E. coli and obtained similar results (data not shown).
AMPK phosphotransferase activity was assayed in reactions (50 μl) containing 50 mM HEPES, pH 7.4, 10 mM MgCl2, 0.1 mM EGTA, 1 mM DTT, 0.01% BRIJ-35, 100 μM [γ-^32P]ATP (∼250 CPM⋅pmol^−1) and 200 μM AMARA (AMARAASAAALARRR). Reactions were started by the addition of AMPK (5 mU), incubated for 20 min at 30°C and quenched by spotting onto P81 and immersion in 75 mM H3PO4. Washed filters were dried and [^32P] incorporation determined by Cherenkov counting. AMPK activity in cell extracts was determined by immunoprecipitation with AMPKα1 or AMPKα2 antibodies from 50 μg material, as previously described ([Hunter et al., 2011]). […]

[3] = system: WT and β2-KO hepatocytes; assay: AMPK signaling, western blotting; type: cell-based, mouse; conditions: 1 hr; A769662 100 μM
Experimental: (§2) Figure 7 C13 Activates Both β1 and β2 Complexes in Mouse Hepatocytes (A) Hepatocytes from WT, AMPKβ1^−/−, and AMPKβ2^−/− mice were incubated with the indicated concentrations of C13 for 1 hr. A769662 (100 μM) was included as a positive control. Lysates were analyzed using western blotting with the indicated antibodies. (B) Mouse hepatocytes from the indicated genotypes were treated with the indicated concentrations of C13 and labeled with [^3H]acetate for 4 hr. Lipogenesis was estimated from the incorporation of acetate into total lipids. Results are expressed as the mean acetate incorporated in micromoles per gram-hour ± SD.

[4] = system: β1-KO hepatocytes; assay: AMPK signaling, western blotting; type: cell-based, mouse; conditions: 1 hr; A769662 100 μM
Experimental: as §2

[5] = system: β1-KO hepatocytes; assay: Lipogenesis, [3H]acetate incorporation into total lipids; type: cell-based, mouse; conditions: 100 μM, 4 hr
Experimental: as §2
Lipid synthesis was determined by labeling adherent cultures of primary hepatocytes with [1-^14C]acetate. After overnight culture, hepatocytes (5 × 10^5) were washed with warm PBS and allowed to rest for 3 hr in fresh M199. Cells were treated with vehicle (0.1% DMSO) or the indicated compounds and labeled with 1 mCi⋅mmol^−1 [1-^14C]acetate for 3 hr. […] Lipogenesis in hepatocytes from AMPKβ1/β2-KO mice was determined in media containing [^3H]acetate (0.2 mCi⋅mmol^−1). After 4 hr labeling, total lipids were extracted using the method of [Bligh and Dyer (1959)], and incorporated [^3H] was determined by scintillation counting. The results are expressed as micromoles acetate incorporated per gram-hour.

[6] = system: mouse hepatocytes; assay: Adenine nucleotide ratios by capillary electrophoresis; type: cell-based; conditions: 1 hr; C13 up to 100 μM
Experimental: as §1
Isolation of primary hepatocytes. Hepatocytes were isolated from fasted mice by collagenase digestion (Berry and Friend, 1969). Cells were seeded in M199 containing 100 U/ml penicillin G, 100 µg/ml streptomycin, 0.1 % (w/v) BSA, 10 % (v/v) FBS, 10 nM insulin, 200 nM triiodothyronine and 100 nM dexamethasone. […]
Nucleotide measurements. […] Nucleotides were separated and quantified by capillary electrophoresis using a Beckman P/ACE instrument as previously described (Hawley, et al., 2010).

[7] = system: LKB1−/− mouse embryonic fibroblasts; assay: AMPK and ACC phosphorylation in LKB1-null fibroblasts; type: cell-based; conditions: 1 hr; AICAR 2 mM
Experimental: AICAR (0.5 mM) was included as a positive control. Cell lysates were analyzed using western blotting with the indicated antibodies. (B) AMPKα1 or AMPKα2 complexes were immunoprecipitated from hepatocyte extracts prepared as described in (A) and assayed for kinase activity using 0.2 mM AMARA and 0.1 mM ATP. Results are expressed as the mean Pi incorporated in picomoles per minute-milligram ± SD. (C) Hepatocytes were stimulated with 30 μM C13 for the indicated times prior to harvesting, with AICAR (0.5 mM, 1 hr) as positive control. Lysates were analyzed using western blotting with the indicated antibodies. (D) Mouse hepatocytes were treated with the indicated compounds for 1 hr, and adenine nucleotide ratios were determined using capillary electrophoresis of perchloric acid extracts. […] Lysates were analyzed using western blotting with the indicated antibodies. (F) Wild-type (LKB1^+/+) or LKB1-null (LKB1^−/−) mouse embryonic fibroblasts were incubated with the indicated concentrations of C13 for 1 hr. AICAR (2 mM) was included as a positive control. Lysates were analyzed using western blotting with the indicated antibodies.

T1 sequence (Q13131 whole entry): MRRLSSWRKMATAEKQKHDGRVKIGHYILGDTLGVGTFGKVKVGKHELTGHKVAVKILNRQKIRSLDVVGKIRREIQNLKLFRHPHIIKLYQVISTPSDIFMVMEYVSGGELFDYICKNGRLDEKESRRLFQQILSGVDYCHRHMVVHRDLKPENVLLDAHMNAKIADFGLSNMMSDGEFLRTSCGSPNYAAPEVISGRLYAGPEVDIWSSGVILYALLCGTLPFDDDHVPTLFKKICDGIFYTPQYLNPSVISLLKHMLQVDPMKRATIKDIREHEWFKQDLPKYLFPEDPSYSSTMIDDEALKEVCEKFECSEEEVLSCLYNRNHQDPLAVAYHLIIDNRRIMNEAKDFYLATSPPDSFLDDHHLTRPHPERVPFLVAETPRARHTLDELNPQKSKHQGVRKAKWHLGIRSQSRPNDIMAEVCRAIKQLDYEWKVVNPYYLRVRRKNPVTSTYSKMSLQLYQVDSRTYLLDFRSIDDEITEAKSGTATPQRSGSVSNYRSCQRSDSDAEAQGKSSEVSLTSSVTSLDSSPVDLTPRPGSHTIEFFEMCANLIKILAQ
T1 sequence (Q9Y478 whole entry partner): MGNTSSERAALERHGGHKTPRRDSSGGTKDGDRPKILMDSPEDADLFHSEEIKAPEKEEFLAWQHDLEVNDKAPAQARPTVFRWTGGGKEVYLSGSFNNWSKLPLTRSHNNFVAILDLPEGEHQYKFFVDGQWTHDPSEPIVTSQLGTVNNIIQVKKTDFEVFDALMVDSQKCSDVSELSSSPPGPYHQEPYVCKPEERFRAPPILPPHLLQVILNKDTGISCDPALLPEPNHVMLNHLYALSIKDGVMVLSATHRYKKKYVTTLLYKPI
T1 sequence (P54619 whole entry): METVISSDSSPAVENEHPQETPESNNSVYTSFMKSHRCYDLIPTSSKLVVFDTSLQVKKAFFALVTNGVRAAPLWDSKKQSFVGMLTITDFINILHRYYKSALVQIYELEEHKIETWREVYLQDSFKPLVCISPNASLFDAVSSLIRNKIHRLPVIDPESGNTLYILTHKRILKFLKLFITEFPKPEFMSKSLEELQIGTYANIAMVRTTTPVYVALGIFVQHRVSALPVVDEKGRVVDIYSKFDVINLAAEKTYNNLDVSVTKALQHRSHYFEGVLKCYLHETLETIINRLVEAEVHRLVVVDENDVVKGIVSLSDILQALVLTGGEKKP

**Q.** With `O=C(O)c1ccc2c3c1cccc3c(=O)n1c3ccccc3nc21` [STO-609, reference compound] as the molecule, how does the “phosphorylation of AMPK and ACC by ionomycin after prior incubation” value [1] read?
**A.** almost completely abolished

**Q.** Which “effect on activation by C2” value [2] does the source give for `Nc1ncnc2c1ncn2[C@@H]1O[C@H](COP(=O)(O)OP(=O)(O)O)[C@@H](O)[C@H]1O` [ADP, reference compound] here?
**A.** antagonized

**Q.** Which results are given for `N#Cc1c(O)c2c(-c3ccc(-c4ccccc4O)cc3)csc2[nH]c1=O` [Compound A769662, reference compound]?
**A.** phosphorylation of Thr172 and ACC, as well as Raptor [3]: robustly stimulated; stimulation of AMPK (Thr172 phosphorylation) [4]: failed to stimulate; suppression of lipogenesis [5]: failed to suppress lipogenesis

**Q.** With `O=[N+]([O-])c1ccc(O)c([N+](=O)[O-])c1` [DNP, 2,4-dinitrophenol] as the molecule, how does the “ADP:ATP and AMP:ATP ratios” value [6] read?
**A.** increased

**Q.** For `NC(=O)c1ncn([C@@H]2O[C@H](CO)[C@@H](O)[C@H]2O)c1N` [AICAR, 5-aminoimidazole-4-carboxamide riboside, reference compound], which “compound-induced phosphorylation of AMPK and ACC” value [7] is on record?
**A.** abolished

**Q.** Which “ADP:ATP and AMP:ATP ratios” value [6] does the source give for `OO` [Compound H2O2] here?
**A.** increased
